Data taken from patent US20130281399A1, “TREATMENT OF DISEASES BY EPIGENETIC REGULATION” (RVX Therapeutics Inc., priority 2012, published 2013).

Experiments:
Brd4 bromodomain 1 = target: T1, Brd4 bromodomain 1 (Homo sapiens, UniProt O60885); assay: Inhibition of binding of tetra-acetylated histone H4 to Brd4 bromodomain 1 (TR-FRET); conditions: His-tagged Brd4 bromodomain 1 200 nM, tetra-acetylated histone H4 peptide 25-50 nM, 2 hours room temperature
T1 construct: made in house; host or cells: E. coli BL21(DE3)
Procedure: Proteins were cloned and overexpressed with a N-terminal 6×His tag, then purified by nickel affinity followed by size exclusion chromatography. Briefly, E. coli BL21(DE3) cells were transformed with a recombinant expression vector encoding N-terminally Nickel affinity tagged bromodomains from Brd2, Brd3, Brd4. Cell cultures were incubated at 37° C. with shaking to the appropriate density and induced overnight with IPTG. The supernatant of lysed cells was loaded onto Ni-IDA column for purification. Eluted protein was pooled, concentrated and further purified by size exclusion chromatography. Fractions representing monomeric protein were pooled, concentrated, aliquoted, and frozen at −80° C. for use in subsequent experiments.
For inhibition assays, serially diluted test compound was added to these reactions in a 0.2% final concentration of DMSO. Final buffer concentrations were 30 mM HEPES pH 7.4, 30 mM NaCl, 0.3 mM CHAPS, 20 mM phosphate pH 7.0, 320 mM KF, 0.08% BSA). […] The binding inhibitory activity was shown by a decrease in 665 nm fluorescence relative to 620 nm. IC50 values were determined from a dose response curve.

| SMILES | melting point [°C] | FRET activity (<50 uM) (Brd4 bromodomain 1) |
| --- | --- | --- |
| COc1cc(OC)c2c(=O)[nH]c(-c3ccc(N4CCC(O)CC4)cc3)nc2n1 [Example 8, 2-(4-(4-Hydroxypiperidin-1-yl)phenyl)-5,7-dimethoxypyrido[2,3-d]pyrimidin-4(3H)-one] | 284 to 286 | Active |
| COc1cc(OC)c2c(=O)[nH]c(-c3cc(C)c(OCCN4CCCC4)c(C)c3)nc2n1 | 228 to 230 |  |
| Cc1cc(-c2nc3cc(Cl)cc(Cl)c3c(=O)[nH]2)cc(C)c1OCCN1CCCC1 [Example 67, 5,7-Dichloro-2-(3,5-dimethyl-4-(2-(pyrrolidin-1-yl)ethoxy)phenyl)quinazolin-4(3H)-one] | 209 to 210 | Inactive |
| COc1cc(OC)c2c(=O)[nH]c(-c3cc(C)c(OCCN4CCN(C(C)=O)CC4)c(C)c3)nc2c1 [Example 68, 2-(4-(2-(4-Acetylpiperazin-1-yl)ethoxy)-3,5-dimethylphenyl)-5,7-dimethoxyquinazolin-4(3H)-one] | 213 to 214 | Active |
| COc1cc(OC)c2c(=O)[nH]c(-c3ccc(N4CCCNCC4)cc3)nc2c1 [Example 33, 2-(4-(1,4-Diazepan-1-yl)phenyl)-5,7-dimethoxyquinazolin-4(3H)-one] |  | Active |
| COc1cc(OC)c2c(=O)[nH]c(-c3ccc(N4CCN(C(=O)c5ccncc5)CC4)cc3)nc2c1 [Example 23, 2-(4-(4-Isonicotinoylpiperazin-1-yl)phenyl)-5,7-dimethoxyquinazolin-4(3H)-one] |  | Active |
| COc1cc(OC)c2c(=O)[nH]c(-c3ccc(N4CCC(NC(C)C)CC4)cc3)nc2c1 [Example 47, 2-(4-(4-(Isopropylamino)piperidin-1-yl)phenyl)-5,7-dimethoxyquinazolin-4(3H)-one] |  | Active |
| COc1cc(OC)c2c(=O)[nH]c(-c3ccc(N4CCC(NS(C)(=O)=O)CC4)cc3)nc2c1 [Example 14, N-(1-(4-(5,7-Dimethoxy-4-oxo-3,4-dihydroquinazolin-2-yl)phenyl)piperidin-4-yl)methanesulfonamide] |  | Active |
| COc1cc(OC)c2c(=O)[nH]c(-c3ccc(N4CCNCC4)cc3)nc2c1 [Example 12, 5,7-Dimethoxy-2-(4-(piperazin-1-yl)phenyl)quinazolin-4(3H)-one] |  | Active |
| COc1cc(OC)c2c(=O)[nH]c(-c3ccc(N4CCN(C(=O)c5ccccc5)CC4)cc3)nc2c1 [Example 18, 2-(4-(4-Benzoylpiperazin-1-yl)phenyl)-5,7-dimethoxyquinazolin-4(3H)-one] |  | Inactive |
| COc1cc(OC)c2c(=O)[nH]c(-c3ccc(N4CCCN(C)CC4)cc3)nc2c1 [Example 34, 5,7-Dimethoxy-2-(4-(4-methyl-1,4-diazepan-1-yl)phenyl)quinazolin-4(3H)-one] |  | Active |
| COc1cc(OC)c2c(=O)[nH]c(-c3ccc(Nc4ccncc4)cc3)nc2c1 [Example 60, 5,7-Dimethoxy-2-(4-(pyridin-4-ylamino)phenyl)quinazolin-4(3H)-one] |  | Active |
| O=c1[nH]c(-c2ccc(N3CCN(CC(F)(F)F)CC3)cc2)nc2ccccc12 [Example 31, 2-(4-(4-(2,2,2-Trifluoroethyl)piperazin-1-yl)phenyl)quinazolin-4(3H)-one] |  | Inactive |
| COc1cc(OC)c2c(=O)[nH]c(-c3ccc(N4C[C@@H](C)N(C(C)=O)[C@@H](C)C4)cc3)nc2n1 [Example 7, 2-(4-((3R,5S)-4-Acetyl-3,5-dimethylpiperazin-1-yl)phenyl)-5,7-dimethoxypyrido[2,3-d]pyrimidin-4(3H)-one] |  | Active |
| COc1cc(OC)c2c(=O)[nH]c(-c3ccc(N4CCN(C(=O)C5CC5)CC4)cc3)nc2c1 [Example 28, 2-(4-(4-(Cyclopropanecarbonyl)piperazin-1-yl)phenyl)-5,7-dimethoxyquinazolin-4(3H)-one] |  | Active |

Second part, the molecule after the results:

| melting point [°C] | FRET activity (<50 uM) (Brd4 bromodomain 1) | SMILES |
| --- | --- | --- |
| 228.8 to 230.4 | Active | COCCOc1cc(OC)c2c(=O)[nH]c(-c3cc(C)nc(C)c3)nc2c1 [Example 100, 2-(2,6-Dimethylpyridin-4-yl)-5-methoxy-7-(2-methoxyethoxy)quinazolin-4(3H)-one] |
| 204 to 205 | Active | COc1cc(OC)c2c(=O)[nH]c(-c3cc(C)c(OCCN4CCC4)c(C)c3)nc2c1 [Example 86, 2-(4-(2-(Azetidin-1-yl)ethoxy)-3,5-dimethylphenyl)-5,7-dimethoxyquinazolin-4(3H)-one] |
| 106.9 to 109.1 | Active | COc1cc(OC)c2c(=O)[nH]c(-c3cc(C)cc(OCCO)c3)nc2c1 [Example 113, 2-(3-(2-Hydroxyethoxy)-5-methylphenyl)-5,7-dimethoxyquinazolin-4(3H)-one] |
| 149.8 to 151.4 | Active | COCCOc1cc(OCCOC)c2c(=O)[nH]c(-c3cc(C)nc(C)c3)nc2c1 [Example 101, 2-(2,6-Dimethylpyridin-4-yl)-5,7-bis(2-methoxyethoxy)quinazolin-4(3H)-one] |
| 65 to 68 | Inactive | Cc1cc(-c2nc3cc(OC(C)C)cc(OC(C)C)c3c(=O)[nH]2)cc(C)c1OCCN1CCCC1 [Example 88, 2-(3,5-Dimethyl-4-(2-(pyrrolidin-1-yl)ethoxy)phenyl)-5,7-diisopropoxyquinazolin-4(3H)-one] |
| 226 to 227 | Active | COc1cc(OC)c2c(=O)[nH]c(-c3ccc(OCCN4CCCC4)cc3)nc2c1 [Example 76, 5,7-Dimethoxy-2-(4-(2-(pyrrolidin-1-yl)ethoxy)phenyl)quinazolin-4(3H)-one] |
| 180 to 182 | Active | COc1cc(OC)c2c(=O)[nH]c(-c3cc(C)c(OCCN4CCN(C)CC4)c(C)c3)nc2c1 [Example 71, 2-(3,5-Dimethyl-4-(2-(4-methylpiperazin-1-yl)ethoxy)phenyl)-5,7-dimethoxyquinazolin-4(3H)-one] |
| 223 to 224 | Active | COc1cc(OCCOc2ccccc2)cc2nc(-c3cc(C)nc(C)c3)[nH]c(=O)c12 [Example 103, 2-(2,6-Dimethylpyridin-4-yl)-5-methoxy-7-(2-phenoxyethoxy)quinazolin-4(3H)-one] |
| 179 to 180 | Inactive | Cc1cc(-c2nc3cccc(Cl)c3c(=O)[nH]2)cc(C)c1OCCN1CCCC1 [Example 83, 5-Chloro-2-(3,5-dimethyl-4-(2-(pyrrolidin-1-yl)ethoxy)phenyl)quinazolin-4(3H)-one] |
| 60.4 to 62.3 | Active | COCCOc1cc(OCCN2CCCC2)c2c(=O)[nH]c(-c3cc(C)nc(C)c3)nc2c1 [Example 111, 2-(2,6-Dimethylpyridin-4-yl)-7-(2-methoxyethoxy)-5-(2-(pyrrolidin-1-yl)ethoxy)quinazolin-4(3H)-one] |
| 295 to 296 | Active | COc1cc(OC)c2c(=O)[nH]c(-c3ccc(Cc4nnn[nH]4)cc3)nc2c1 [Example 96, 2-(4-((1H-Tetrazol-5-yl)methyl)phenyl)-5,7-dimethoxyquinazolin-4(3H)-one] |
| 172.3 to 173.2 | Active | COc1cc(OCCOc2ccccc2)c2c(=O)[nH]c(-c3cc(C)nc(C)c3)nc2c1 [Example 104, 2-(2,6-Dimethylpyridin-4-yl)-7-methoxy-5-(2-phenoxyethoxy)quinazolin-4(3H)-one] |
| 317 to 318 | Inactive | COc1cc(OC)c2c(=O)[nH]c(-c3ccc(CN4C(=O)CNC4=O)cc3)nc2c1 [Example 80, 3-(4-(5,7-Dimethoxy-4-oxo-3,4-dihydroquinazolin-2-yl)benzyl)imidazolidine-2,4-dione] |
| 219.6 to 221.4 | Active | COc1cc(OC)c2c(=O)[nH]c(-c3cc(C)c(OCCN4C(=O)NC(c5ccccc5)C4=O)c(C)c3)nc2c1 (stereo not shown) [Example 79, 3-(2-(4-(5,7-Dimethoxy-4-oxo-3,4-dihydroquinazolin-2-yl)-2,6-dimethylphenoxy)ethyl)-5-phenylimidazolidine-2,4-dione] |
| 124 to 125 | Active | Cc1cc(-c2nc3cc(OCCOC(C)C)cc(OCCOC(C)C)c3c(=O)[nH]2)cc(C)n1 [Example 108, 2-(2,6-dimethylpyridin-4-yl)-5,7-bis(2-isopropoxyethoxy)quinazolin-4(3H)-one] |
| 244.8 to 246 | Active | COc1cc(OC)c2c(=O)[nH]c(-c3cccc(OCCO)c3)nc2c1 [Example 112, 2-(3-(2-Hydroxyethoxy)phenyl)-5,7-dimethoxyquinazolin-4(3H)-one] |
| 188 to 189 |  | COc1cc(OCCOC(C)C)cc2nc(-c3cc(C)nc(C)c3)[nH]c(=O)c12 [Example 107, 2-(2,6-Dimethylpyridin-4-yl)-7-(2-isopropoxyethoxy)-5-methoxyquinazolin-4(3H)-one] |
|  | Active | COc1cc(OC)c2c(=O)[nH]c(-c3cc(C)c(OCCN4CCCCC4)c(C)c3)nc2c1 [Example 72, 2-(3,5-Dimethyl-4-(2-(piperidin-1-yl)ethoxy)phenyl)-5,7-dimethoxyquinazolin-4(3H)-one] |
